Source: patent publication US20160122821A1, “GENETIC MARKERS OF ANTIPSYCHOTIC RESPONSE” (SUREGENE, LLC, priority 2013, published 2016)

What was measured:
[1] = tested on: Caucasian patients with schizophrenia (CATIE); test: Genetic association (linear regression, additive model) of SNP alleles with MMRM-modelled change in PANSS Total Score under antipsychotic treatment, CATIE trial; assay type: in vivo, human; details: rs1315115, located in an intron of NPAS3
Description: For the CATIE study, individual cases were diagnosed as having SZ based on DSM-III/IV criteria. Treatment response for all patients was assessed using the Positive and Negative Syndrome Scale (PANSS) (Kay et al., 1987; Kay et al., 1989; Leucht et al., 2005). […] To avoid possible bias in post hoc selection of a treatment response variable, the inventors used the mixed model repeated measures (MMRM) approach developed by van den Oord and coworkers (van den Oord et al., 2009). […] The design of the CATIE study, including details of consent for genetic analyses, has been described in detail by others (Lieberman et al., 2005; Stroup et al., 2003; Sullivan et al., 2008). Only retrospective genetic analyses, judged to be exempt from human studies requirements by an IRB, were conducted in the current study. Consented DNA samples were obtained from the Rutgers University Cell and DNA Repository in collaboration with […]. […] All of these patients self-reported as having exclusively European ancestry. […] Genotyping was performed on a fee for service basis according to Illumina's standard operating procedures. Raw intensity files were processed using Illumina® BeadStudio version 1.7.4 software. […] Only two of these had been previously genotyped in the CATIE sample. […] To allow comparison to previously published PGx findings for CATIE and to avoid possible bias in post-hoc selection of a treatment response variable, the inventors used the mixed model repeated measures (MMRM) approach developed by Van den Oord and coworkers (van den Oord et al., 2009; […] et al., 2011). Briefly, this method models random effects by introducing random slopes for treatment effects, allowing treatment effects to be different across subjects. The MMRM approach serves to increase the statistical power to detect genetic associations by increasing the precision in measuring change in PANSS Total Score (PANSS-T) by accounting for variance due to baseline PANSS-T, and treatment, as well as smoothing out the random fluctuations in PANSS-T between visits due to various uncontrolled variables. […] Bozeman, Mont.). Quantile-Quantile (QQ) plots were prepared using the R statistical package version 2.14.1. For comparison purposes, original CATIE-provided SNP genotypes in specific genes were evaluated using the same genetic analysis. Haplotype association integrating newly generated and original genotypes for specific regions was carried out in SVS using haplotype blocks predefined by Haploview software. […] For each of the SNPs listed the reference SNP (rs) number is provided, which provides the known sequence context for the given SNP (see, e.g., National Center for Biotechnology Information (NCBI) SNP database available on the world wide web at ncbi.nlm.nih.gov/snp).

[2] = tested on: Caucasian patients with schizophrenia (CATIE); details: SNPs in NPAS3; Lavedan et al., 2009; cited from earlier work

| SMILES | association of SNP with response [1] | association of SNPs with response [2] |
| --- | --- | --- |
| Cc1nc2n(c(=O)c1CCN1CCC(c3noc4cc(F)ccc34)CC1)CCCC2 [Risperidone, risperidone] | associated with response |  |
| COc1cc(C(C)=O)ccc1OCCCN1CCC(c2noc3cc(F)ccc23)CC1 [iloperidone] |  | association of SNPs in NPAS3 with response |
